Test results from patent publication US8785434B2, “Antiviral compounds” (Prosetta Antiviral Inc., priority 2010, dated 2014).

System: respiratory viruses (Corona Virus on MRC5 Cells, Influenza Virus A on MDCK Cells, Respiratory Syncytial Virus on HEp2 cells, Adenovirus serotype 5 on A549 …)
Experiment: Respiratory viruses: virus grown in the presence of compound, infectious virus titrated by TCID50
Type: cell-based
Conditions: qualitative statement; compound tested at 10 μM, 2 μM, 0.4 μM and 0.08 μM
Procedure: The activities of compounds of the invention were determined for the following viruses using the protocol below:
Corona Virus on MRC5 Cells
Influenza Virus A on MDCK Cells
Respiratory Syncytial Virus on HEp2 cells
Adenovirus serotype 5 on A549 cells
Human Rhinovirus on H1Hela Cells
Herpes Simplex Virus 1 on Vero cells
Virus was grown in the presence of four dilutions (10 μM, 2 μM, 0.4 μM and 0.08 μM) of the chemical compound tested with two controls using standard methods and materials for the relevant virus. The infected cell extract was collected using known methods, and the infectious virus concentration was determined using standard techniques.
Each well was titrated by TCID50. Four serial dilutions in quadruplicate required to determine the titer of each well. To assay 36 replicates as directed, one hundred eight (108) 96-well plates will be required. Each drug was tested at four dilutions against one virus will require TCID50 titers of 18 sample wells.

Cc1cc(N(C)C)cc2[s+]c3cc(N4CCN(C)CC4)cc(C)c3nc12.[I-] [3-(Dimethylamino)-1,9-dimethyl-7-(4-methylpiperazin-1-yl)phenothiazin-5-ium iodide]
activity across all of the respiratory viruses tested (pan-respiratory anti-viral activity): surprisingly strong activity across all of the respiratory viruses tested
